Laboratory results: patent US8501794B2, “Compounds as cannabinoid receptor ligands” (priority 2007, dated 2013)

Experiments:
human CB2 receptors = target: T1, human CB2 receptors (Homo sapiens, UniProt P34972); assay: human CB2 radioligand binding assay ([3H]CP-55,940 competition)
T1 construct: expressed in transfected cells; host or cells: HEK293

rat CB2 [1] = target: T2, rat CB2 (Rattus norvegicus, UniProt Q9QZN9); assay: rat CB2 cyclase functional assay (HitHunter cAMP, HEK cells); type: cell-based; set-up: expressed in transfected cells; host or cells: HEK; conditions: forskolin 18 μM
T2 sequence (Q9QZN9 1-360): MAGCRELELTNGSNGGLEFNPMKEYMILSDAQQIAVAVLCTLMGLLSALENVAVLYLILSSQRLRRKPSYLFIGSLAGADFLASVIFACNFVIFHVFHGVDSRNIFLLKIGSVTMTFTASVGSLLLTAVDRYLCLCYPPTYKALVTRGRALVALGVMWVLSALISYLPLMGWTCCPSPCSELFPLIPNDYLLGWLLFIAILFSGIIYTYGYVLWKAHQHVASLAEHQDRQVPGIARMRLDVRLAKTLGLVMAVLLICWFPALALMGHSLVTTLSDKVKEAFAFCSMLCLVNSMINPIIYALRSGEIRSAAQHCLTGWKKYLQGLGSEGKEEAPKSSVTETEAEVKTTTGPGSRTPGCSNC

rat CB2 [2] = target: T2, rat CB2; assay: rat CB2 radioligand binding assay ([3H]CP-55,940 competition); set-up: expressed in transfected cells; host or cells: HEK293

T1 sequence (P34972 whole entry): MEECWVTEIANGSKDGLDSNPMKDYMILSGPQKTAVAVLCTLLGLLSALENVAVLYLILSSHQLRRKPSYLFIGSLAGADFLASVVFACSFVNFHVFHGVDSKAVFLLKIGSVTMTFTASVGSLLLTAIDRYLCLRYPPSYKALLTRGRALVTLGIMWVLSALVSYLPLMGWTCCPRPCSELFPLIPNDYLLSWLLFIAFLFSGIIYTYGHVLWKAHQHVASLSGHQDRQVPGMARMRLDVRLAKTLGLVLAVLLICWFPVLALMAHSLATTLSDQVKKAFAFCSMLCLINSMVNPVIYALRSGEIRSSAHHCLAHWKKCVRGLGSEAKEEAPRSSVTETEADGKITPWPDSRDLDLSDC

Structure (SMILES)	Ki (human CB2 receptors) [nM]	EC50 (rat CB2 [1]) [nM]	Ki (rat CB2 [2]) [nM]
CCCCc1cn(C(C)(C)C)s/c1=N\C(=O)c1cc(C=O)ccc1OC [Example 56, N-[(5Z)-4-butyl-2-tert-butylisothiazol-5(2H)-ylidene]-5-formyl-2-methoxybenzamide]	11	0.076	1.2
CCCCc1cn(C(C)(C)C)s/c1=N\C(=O)c1cc(C=NO)ccc1OC [Example 59, N-[(5Z)-4-butyl-2-tert-butylisothiazol-5(2H)-ylidene]-5-[(hydroxyimino)methyl]-2-methoxybenzamide]	54	0.12	3.3
CCCCc1cn(C(C)(C)C)s/c1=N\C(=O)c1cc(C(C)=O)ccc1OC [Example 64, 5-acetyl-N-[(5Z)-4-butyl-2-tert-butylisothiazol-5(2H)-ylidene]-2-methoxybenzamide]	14	0.05	0.63
CCCCc1cn(C(C)(C)C)s/c1=N\C(=O)c1cc(C(F)F)ccc1OC [Example 65, N-[(5Z)-4-butyl-2-tert-butylisothiazol-5(2H)-ylidene]-5-(difluoromethyl)-2-methoxybenzamide]	9.3	0.052	1.6
COc1ccc(Cl)cc1C(=O)/N=c1\sn(C(C)(C)C)cc1CC1CCCO1 (stereo not drawn) [Example 67, N-[(5Z)-2-tert-butyl-4-(tetrahydrofuran-2-ylmethyl)isothiazol-5(2H)-ylidene]-5-chloro-2-methoxybenzamide]	32	3.7	3
CCCCc1cn(C(C)(C)C)s/c1=N\C(=O)c1cc(/C(C)=N\O)ccc1OC [Example 68, N-[(5Z)-4-butyl-2-tert-butylisothiazol-5(2H)-ylidene]-5-[(1Z)-N-hydroxyethanimidoy1]-2-methoxybenzamide]	59	0.022	8.3
CCCCc1cn(C(C)(C)C)s/c1=N\C(=O)c1cc(C(C)(F)F)ccc1OC [Example 69, N-[(5Z)-4-butyl-2-tert-butylisothiazol-5(2H)-ylidene]-5-(1,1-difluoroethyl)-2-methoxybenzamide]	18	0.043	1.6
COc1ccc(C(F)(F)F)cc1C(=O)/N=c1\sn(C(C)(C)C)cc1Cc1ccco1 [Example 71, N-[(5Z)-2-tert-butyl-4-(2-furylmethyl)isothiazol-5(2H)-ylidene]-2-methoxy-5-(trifluoromethyl)benzamide]	28	0.36	1.9
COc1ccc(Cl)cc1C(=O)/N=c1\sn(C(C)(C)C)cc1COC(C)C [Example 72, N-[(5Z)-2-tert-butyl-4-(isopropoxymethyl)isothiazol-5(2H)-ylidene]-5-chloro-2-methoxybenzamide]	19	0.054	7.4
CCCCc1cn(C(C)(C)C)s/c1=N\C(=O)c1cc(C(=O)OC)ccc1OC [Example 74, Methyl 3-({[(5Z)-4-butyl-2-tert-butylisothiazol-5(2H)-ylidene]amino}carbonyl)-4-methoxybenzoate]	27	0.095	2.5
COc1ccc(Cl)cc1C(=O)/N=c1\sn(C(C)(C)C)cc1CCCC(C)=O [Example 75, N-[(5Z)-2-tert-butyl-4-(4-oxopentyl)isothiazol-5(2H)-ylidene]-5-chloro-2-methoxybenzamide]	31	0.29	4
COc1ccc(C(F)(F)F)cc1C(=O)/N=c1\sn(C(C)(C)C)cc1CCCC(C)=O [Example 76, N-[(5Z)-2-tert-butyl-4-(4-oxopentyl)isothiazol-5(2H)-ylidene]-2-methoxy-5-(trifluoromethyl)benzamide]	24	0.13	2.2
COc1ccc(Cl)cc1C(=O)/N=c1\sn(C(C)(C)C)cc1CCCC(C)(C)O [Example 80, N-[(5Z)-2-tert-butyl-4-(4-hydroxy-4-methylpentyl)isothiazol-5(2H)-ylidene]-5-chloro-2-methoxybenzamide]	74	0.046	8.5
COc1ccc(C(F)(F)F)cc1C(=O)/N=c1\sn(C(C)(C)C)cc1CCCC(C)(C)O [Example 81, N-[(5Z)-2-tert-butyl-4-(4-hydroxy-4-methylpentyl)isothiazol-5(2H)-ylidene]-2-methoxy-5-(trifluoromethyl)benzamide]	45	0.061	2.6
COc1ccc(Cl)cc1C(=O)/N=c1\sn(C(C)(C)C)cc1CCCC(C)(C)F [Example 83, N-[(5Z)-2-tert-butyl-4-(4-fluoro-4-methylpentyl)isothiazol-5(2H)-ylidene]-5-chloro-2-methoxybenzamide]	12	0.073	0.79
COc1ccc(Cl)cc1C(=O)/N=c1\sn(C(C)(C)C)cc1CCC(C)=O [Example 84, N-[(5Z)-2-tert-butyl-4-(3-oxobutyl)isothiazol-5(2H)-ylidene]-5-chloro-2-methoxybenzamide]	42	0.88	2.7
COc1ccc(Cl)cc1C(=O)/N=c1\sn(C(C)(C)C)cc1COCC(F)(F)F [Example 85, N-[(5Z)-2-tert-butyl-4-[(2,2,2-trifluoroethoxy)methyl]isothiazol-5(2H)-ylidene]-5-chloro-2-methoxybenzamide]	17	0.42	3.5
COc1ccc(Cl)cc1C(=O)/N=c1\sn(C(C)(C)C)cc1CCCC(C)(F)F [Example 86, N-[(5Z)-2-tert-butyl-4-(4,4-difluoropentyl)isothiazol-5(2H)-ylidene]-5-chloro-2-methoxybenzamide]	4.4	0.12	0.64
COc1ccc(Cl)cc1C(=O)/N=c1\sn(C(C)(C)C)cc1CCC(C)(C)F [Example 87, N-[(5Z)-2-tert-butyl-4-(3-fluoro-3-methylbutyl)isothiazol-5(2H)-ylidene]-5-chloro-2-methoxybenzamide]	12	0.15	0.74
COc1ccc(Cl)cc1C(=O)/N=c1\sn(C(C)(C)C)cc1COCC(F)F [Example 91, N-[(5Z)-2-tert-butyl-4-[(2,2-difluoroethoxy)methyl]isothiazol-5(2H)-ylidene]-5-chloro-2-methoxybenzamide]	45	0.1	12
CCCCc1cn(C(C)(C)C)s/c1=N\C(=O)C1(c2ccccc2)CCCCC1 [Example 94, N-[(5Z)-4-butyl-2-tert-butylisothiazol-5(2H)-ylidene]-1-phenylcyclohexanecarboxamide]	4.8	0.25	1.1
CCCCc1cn(C(C)(C)C)s/c1=N\C(=O)C1(C)CCC(C(=O)O)C1(C)C (stereo not drawn) [Example 96, 3-({[(5Z)-4-butyl-2-tert-butylisothiazol-5(2H)-ylidene]amino}carbonyl)-2,2,3-trimethylcyclopentanecarboxylic acid]	20	1.4	27
CCCCc1cn(C(C)(C)C)s/c1=N\C(=O)C1(C)CCC(C(=O)N(C)C)C1(C)C (stereo not drawn) [Example 99, N^1-[(5Z)-4-butyl-2-tert-butylisothiazol-5(2H)-ylidene]-N^3,N^3,1,2,2-pentamethylcyclopentane-1,3-dicarboxamide]	56	4.8	42
CCCCc1cn(C(C)(C)C)s/c1=N\C(=O)C1(C)CCC(C(=O)NC)C1(C)C (stereo not drawn) [Example 100, N^1-[(5Z)-4-butyl-2-tert-butylisothiazol-5(2H)-ylidene]-N^3,1,2,2-tetramethylcyclopentane-1,3-dicarboxamide]	10	0.99	9.9
CCCCc1cn(C(C)(C)C)s/c1=N\C(=O)C1CCC(C)(C(=O)O)C1(C)C (stereo not drawn) [Example 105, 3-({[(5Z)-4-butyl-2-tert-butylisothiazol-5(2H)-ylidene]amino}carbonyl)-1,2,2-trimethylcyclopentanecarboxylic acid]	19	0.11	17
CCCCc1cn(C(C)(C)C)s/c1=N\C(=NC#N)c1cc(Cl)ccc1OC [Example 110, N-[(5Z)-4-butyl-2-tert-butylisothiazol-5(2H)-ylidene]-5-chloro-N′-cyano-2-methoxybenzenecarboximidamide]	3	0.12	1.6
CCCCc1cn(C(C)(C)C)s/c1=N\S(=O)(=O)c1cccc2ccccc12 [Example 116, N-[(5Z)-4-butyl-2-tert-butylisothiazol-5(2H)-ylidene]naphthalene-1-sulfonamide]	50	2.4	45
CCCCc1cn(C(C)(C)C)s/c1=N\S(=O)(=O)C1CCCCC1 [Example 118, N-[(5Z)-4-butyl-2-tert-butylisothiazol-5(2H)-ylidene]cyclohexanesulfonamide]	43	5.1	119
CCCCc1cn(C(C)(C)C)s/c1=N\C(=O)C1C(C)(C)C1(C)C [Example 121, N-[(5Z)-4-butyl-2-tert-butylisothiazol-5(2H)-ylidene]-2,2,3,3-tetramethylcyclopropanecarboxamide]	0.8	0.33	0.52
